Legend:
Format in all cases: binding
[1] = system: G-quadruplex structure (human telomeric oligo DNA); experiment: Absorbance 480 to 800 nm of phthalocyanine mixed with G-quadruplex solutions; conditions: 15 μM compound solution, 50 mM HEPES, 100 mM NaCl, pH7
Method: Hereinafter, the interaction between anionic phthalocyanines and various DNAs was studied in Examples 6, 7, 8 and 9. For this purpose, a solution containing a G-quadruplex structure, a solution including a single-stranded DNA, and a solution containing a double-stranded DNA were first prepared according to the following procedures.
A solution of 50 mM HEPES and 100 mM NaCl, pH7 (total volume: 100 μL) containing a single-stranded DNA consisting of a sequence of 5′-[…]-3′ (SEQ ID NO: 2; this sequence being similar to a sequence of a human telomere portion, and thus the DNA referred to as “human telomeric oligo DNA” hereafter) was incubated at 90° C. for 5 min, and thereafter cooled to 0° C. at a rate of temperature fall of 2° C./min, followed by finally incubating at 0° C. for 2 hrs.
The concentrations of the human telomeric oligo DNA contained in the solution were 0, 0.5, 2, 5, 10, 25, 50 and 100 μM.
The absolute values of the positive and negative peaks were maximized for the solution having the human telomeric oligo DNA concentration of 100 μM, and dropped in the order of 50, 25, 10, 5, 2 and 0.5 μM. […] Hereafter, G-quadruplex solutions prepared from the solutions having human telomeric oligo DNA concentrations of 100, 50, 25, 10, 5, 2 and 0.5 μM are referred to as G-quadruplex solutions A, B, C, D, E, F and G, respectively. On the other hand, the solution without the human telomeric oligo DNA contained therein is referred to as NC solution.
First, a solution of 50 mM HEPES and 100 mM NaCl, pH7 (total volume: 20 μL) containing 15 μM CuPC was prepared. Then, this CuPC solution was mixed with each of the G-quadruplex solutions C, D, E and F and the NC solution, and the absorbance of these liquid mixtures were measured at 480 to 800 nm.
First, a solution of 50 mM HEPES and 100 mM NaCl, pH7 (total volume: 20 μL) containing 15 μM NiPC was prepared. Then, this NiPC solution was mixed with each of the G-quadruplex solutions D, E, F and G, and the NC solution, and the absorbance of these liquid mixtures were measured at 480 to 800 nm.
First, a solution of 50 mM HEPES and 100 mM NaCl, pH7 (total volume: 20 μL) containing 15 μM PC was prepared. Then, this PC solution was mixed with each of the G-quadruplex solutions D, E, F and G, and the NC solution, and the absorbance of these liquid mixtures were measured at 480 to 800 nm.
First, a solution of 50 mM HEPES and 100 mM NaCl, pH7 (total volume: 20 μL) containing 15 μM CoPC was prepared. Then, this CoPC solution was mixed with each of the G-quadruplex solutions B, C, D and G, and the NC solution, and the absorbance of these liquid mixtures were measured at 480 to 800 nm.

[2] = system: single-stranded DNA; experiment: Absorbance 480 to 800 nm of phthalocyanine mixed with single-stranded DNA solution; conditions: 15 μM compound solution, DNA 50 μM, pH7
Method: A solution of 50 mM HEPES and 100 mM NaCl, pH7 (total volume: 100 μL) containing a single-stranded DNA consisting of a sequence of 5′-[…]-3′ sequence (SEQ ID NO: 3) at a concentration of 50 μM was prepared, which was incubated at 90° C. for 5 min, and thereafter cooled to 0° C. at a rate of temperature fall of 2° C./min, followed by finally incubating at 0° C. for 2 hrs. The DNA in thus resulting solution was a single-stranded DNA even after the incubation (hereafter, the solution referred to as “single-stranded DNA solution”).
(§1) Next, the aforementioned CuPC solution and single-stranded DNA solution, and the aforementioned CuPC solution and double-stranded DNA solution were similarly mixed, respectively. And then the absorbance of these liquid mixtures was measured at 480 to 800 nm. FIG. 9(A) and FIG. 9(B) show the results of the measurement in the cases of the single-stranded DNA solution and the double-stranded DNA solution, respectively.
(§2) Next, the aforementioned NiPC solution and single-stranded DNA solution, and the aforementioned NiPC solution and double-stranded DNA solution were similarly mixed, respectively; the absorbance of these liquid mixtures was measured at 480 to 800 nm. FIG. 11(A) and FIG. 11(B) show the results of the measurement in the cases of the single-stranded DNA solution and the double-stranded DNA solution, respectively. In each drawing, the result obtained when the NC solution was used is also shown together.
(§3) Next, the aforementioned PC solution and single-stranded DNA solution, and the aforementioned PC solution and double-stranded DNA solution were similarly mixed, respectively; the absorbance of these liquid mixture was measured at 480 to 800 nm. FIG. 13(A) and FIG. 13(B) show the results of the measurement in the cases of the single-stranded DNA solution and the double-stranded DNA solution, respectively. In each drawing, the result obtained when the NC solution was used is also shown together.
(§4) Next, the aforementioned CoPC solution and single-stranded DNA solution, and the aforementioned CoPC solution and double-stranded DNA solution were similarly mixed, respectively, and then the absorbance of these liquid mixtures was measured at 480 to 800 nm. FIG. 15(A) and FIG. 15(B) show the results of the measurement in the cases of the single-stranded DNA solution and the double-stranded DNA solution, respectively. In each drawing, the result obtained when the NC solution was used is also shown together.

[3] = system: double-stranded DNA; experiment: Absorbance 480 to 800 nm of phthalocyanine mixed with double-stranded DNA solution; conditions: 15 μM compound solution, DNA 50 μM, pH7
Method: A solution of 50 mM HEPES and 100 mM NaCl, pH7 (total volume: 100 μL) containing a single-stranded DNA consisting of a sequence of 5′-AGAAGAGAAAGA-3′ (SEQ ID NO: 4) and a single-stranded DNA consisting of a sequence of 5′-TCTTTCTCTTCT-3′ (SEQ ID NO: 5) at each concentration of 50 μM was prepared, which was incubated at 90° C. for 5 min, and thereafter cooled to 0° C. at a rate of temperature fall of 2° C./min, followed by finally incubating at 0° C. for 2 hrs. Since the aforementioned two kinds of DNAs are complementary to one another, both DNAs form a double-stranded DNA in the solution as a result of the incubation (hereafter, the solution referred to as “double-stranded DNA solution”).
as §1, §2, §3, §4

Substance	interaction with the G-quadruplex structure (absorption peak) [1]	interaction with the single-stranded DNA (absorption spectrum vs NC solution) [2]	interaction with the double-stranded DNA (absorption spectrum vs NC solution) [3]
Copper(II) phthalocyanine-3,4′,4″,4′″-tetrasulfonic acid tetrasodium salt [CuPC]	an interaction occurred	an interaction did not occur	an interaction did not occur
Nickel(II) phthalocyanine tetrasulfonic acid tetrasodium salt [NiPC]	an interaction occurred	an interaction did not occur	an interaction did not occur

Source: patent publication US20100261246A1, “METHOD FOR INHIBITING TELOMERASE REACTION” (PANASONIC CORPORATION, priority 2009, published 2010)
